According to patent US20110136897A1, “TOLL-LIKE RECEPTOR 9 AGONISTS FOR THE TREATMENT OF ANXIETY-RELATED DISORDERS AND INFLAMMATORY DISORDERS” (YISSUM RESEARCH DEVELOPMENT COMPANY OF THE HEBREW …, priority 2008, published 2011):

Key:
Type in all cases: cell-based, mouse
RAW264.7 cells [1] = test: Nitric oxide (NO) production, Griess reaction; conditions: 24 hours
Experimental: (§1) The mouse macrophage cell line RAW 264.7 (ATCC, Bethesda, Md.) was cultured in Dulbecco's modified Eagle's medium (DMEM) (Biological Industries) supplemented with 10% heat-inactivated fetal bovine serum (Biological Industries, Israel), 100 μg/ml streptomycin, 100 U/ml penicillin (Sigma) and 2 mM 1-glutamine (Biological Industries) at 37° C. in a humidified atmosphere with 5% CO2.
Determination of nitric oxide (NO) production: Nitrite concentration in the medium of cultured cells was measured as an indicator of NO production according to the Griess reaction. 1×10^5 mouse RAW264.7 cells were grown in 0.5 ml medium in 48-wells plate until 80% confluence was obtained. […] (1% sulfanilamide, 0.1% naphthylethylenediamine dihydrochloride, 5% H3PO4). Absorbance was read at 540 nm after 10 min using SPECTRAFluor Plus spectrophotometer (TECAN, UK).
To further characterize the TLR9 activating features of mEN101, mEN101 was applied to RAW264.7 cells (n=4 repeats) for 24 hours and the subsequent production of inflammatory markers was quantified. […] Addition of chloroquine (CQ), a weak base that perturbs endosomal pH and thus disturbs endosomal maturation, as well as the specific TLR9 inhibiting oligonucleotides ODN2088 and ODN TTAGGG (17), all blocked the 10 μM mEN101-driven increases in NO (p<0.015) (FIG. 2A). Thus, both gain and loss of function tests validated the nature of mEN101 as an endosomally active TLR9 activator, albeit a weak one.

RAW264.7 cells [2] = test: RT-PCR of inflammatory genes in RAW264.7 cells (Table 2)
Experimental: Real-time PCR (RT-PCR): Brains were dissected and tissues stored frozen at −70° C. until use. Hippocampal RNA was extracted using the RNeasy Tissue Mini Kit (Qiagen, Germany). Total RNA was reverse-transcribed (200 ng) using Impromp-II reverse transcriptase (Promega, Madison, Wis.) as instructed. RT-PCR was performed using Power SYBR®Green PCR Master Mix (Applied Biosystems, UK) in a 7900 HT Sequence Detection System (Applied Biosystems, Foster City, Calif.). Quantification was assessed at the logarithmic phase of the PCR reaction. The PCR annealing temperature was 60° C. for all primer pairs. GAPDH was used as a house-keeping gene.
Shown are fold differences in RT-PCR products of RAW264.7 cells incubated with the noted doses of mEN101 or ODN1826. Note that ODN1826 affects IL1α, -1β, -6, -10, -12 and ICAM-1 gene expression at concentrations as low as 10 nM, whereas considerably higher doses of mEN101 are needed to attain similar effects. Nevertheless, mEN101 affects inflammatory gene expression even at 10 nM. 1 μg/ml LPS was used as positive control. (n=3, p<0.05 Mann-Whitney U-test compared to untreated controls, for all the data shown).

RAW264.7 cells [3] = test: HSP90β mRNA RT-PCR in RAW264.7 cells; conditions: 24 hour incubation
Experimental: as §1, with “Cell cultures: The” for “The”, “MD)” for “Bethesda, Md.)”, “Industries, Israel)” for “Industries)”, “streptomycin (Sigma),” for “streptomycin,”
Real-time PCR (RT-PCR): RAW264.7 cells and spleen were used for RT-PCR. 1×10^6 RAW264.7 cells were grown in 2 ml medium in 6 wells plates until 80% confluence was obtained. Total RNA was extracted using the RNeasy kit (Qiagen, CA, USA). Spleen and brain tissues' RNA was extracted using the RNeasy Tissue Mini Kit (Qiagen, Germany). In all cases, total RNA was reverse-transcribed (200 ng) using Impromp-II reverse transcriptase (Promega, WI, USA) according to manufacturer's instructions. RT-PCR was performed using Power SYBR®Green PCR Master Mix (Applied Biosystems, UK) in a 7900 HT Sequence Detection System (Applied Biosystems, CA). Quantification was assessed at the logarithmic phase of the PCR reaction. The PCR annealing temperature was 60° C. for all primer pairs.

5′-TCCATGACGTTCCTGACGTT-3′ [ODN1826, reference compound]
concentration reaching saturation levels of NO production (RAW264.7 cells [1]): 100 nM
lowest concentration inducing massive NO production (RAW264.7 cells [1]): 10 nM
ICAM-1 RT-PCR product (RAW264.7 cells [2]; 10 nM): −3.57 log2 from NT
IL1a RT-PCR product (RAW264.7 cells [2]; 10 nM): 4.18 log2 from NT
IL1b RT-PCR product (RAW264.7 cells [2]; 10 nM): 4.40 log2 from NT
IL6 RT-PCR product (RAW264.7 cells [2]; 10 nM): 3.57 log2 from NT
IL10 RT-PCR product (RAW264.7 cells [2]; 10 nM): 3.74 log2 from NT
IL12 RT-PCR product (RAW264.7 cells [2]; 10 nM): 3.57 log2 from NT
ICAM-1 RT-PCR product (RAW264.7 cells [2]; 100 nM): −3.14 log2 from NT
IL1a RT-PCR product (RAW264.7 cells [2]; 100 nM): 5.33 log2 from NT
IL1b RT-PCR product (RAW264.7 cells [2]; 100 nM): 5.63 log2 from NT
IL6 RT-PCR product (RAW264.7 cells [2]; 100 nM): 3.71 log2 from NT
IL10 RT-PCR product (RAW264.7 cells [2]; 100 nM): 4.28 log2 from NT
IL12 RT-PCR product (RAW264.7 cells [2]; 100 nM): 4.28 log2 from NT
HSP90β mRNA levels (RAW264.7 cells [3]): significantly increased HSP90β mRNA levels
